Data on seven compounds can be found in ChEMBL document CHEMBL1150464, “Glycosyl derivatives of NK2 tachykinin receptor antagonists” (Bioorg Med Chem Lett, 1996).

Common to all, as to assay type: functional
Experiment [1] addresses T1, Substance-K receptor (Mesocricetus auratus) (UniProt P51144).
T1 sequence (whole entry): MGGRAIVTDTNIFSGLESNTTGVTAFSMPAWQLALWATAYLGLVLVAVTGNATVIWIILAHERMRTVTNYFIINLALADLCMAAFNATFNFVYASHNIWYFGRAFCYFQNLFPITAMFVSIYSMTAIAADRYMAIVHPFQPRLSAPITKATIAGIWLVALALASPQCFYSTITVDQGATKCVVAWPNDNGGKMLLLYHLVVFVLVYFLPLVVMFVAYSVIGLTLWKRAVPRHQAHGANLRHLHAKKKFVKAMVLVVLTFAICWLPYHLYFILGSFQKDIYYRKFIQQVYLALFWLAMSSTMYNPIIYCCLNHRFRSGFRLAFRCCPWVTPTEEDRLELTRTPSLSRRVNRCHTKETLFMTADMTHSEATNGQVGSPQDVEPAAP
Description: Compound was tested for its antagonistic activity against tachykinin NK2 receptor in hamster trachea (HT).

The target of experiment [2] is T2, Substance-K receptor (Oryctolagus cuniculus) (UniProt P79218).
T2 sequence (whole entry): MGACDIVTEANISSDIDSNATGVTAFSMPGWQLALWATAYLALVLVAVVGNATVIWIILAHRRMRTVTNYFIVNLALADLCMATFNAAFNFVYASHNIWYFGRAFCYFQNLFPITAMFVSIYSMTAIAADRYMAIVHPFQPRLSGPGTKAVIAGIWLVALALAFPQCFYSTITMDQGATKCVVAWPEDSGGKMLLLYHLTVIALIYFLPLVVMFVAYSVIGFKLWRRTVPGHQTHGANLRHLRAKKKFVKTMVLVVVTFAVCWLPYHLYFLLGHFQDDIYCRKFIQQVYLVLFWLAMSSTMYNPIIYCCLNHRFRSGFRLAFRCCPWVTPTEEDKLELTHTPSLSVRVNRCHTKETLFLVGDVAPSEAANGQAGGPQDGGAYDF
Description: Compound was tested for its antagonistic activity against tachykinin NK2 receptor in isolated rabbit pulmonary artery (RPA).

Experiment [3] addresses T1, Substance-K receptor (Mesocricetus auratus). Description: Compound was tested for its antagonistic activity against tachykinin NK2 receptor in hamster trachea (HT); inactive up to 10 uM.

Each structure is given as a SMILES string. Activity calls are given as the source filed them. The calls are words filed in the database; no cut-off is given here. Peptide text beside a SMILES is read from it. * marks the point of attachment. βGlc = OC[C@H]1O[C@@H](*)[C@H](O)[C@@H](O)[C@@H]1O

Consider `CC(C)[C@H](NC(=O)[C@H](Cc1c[nH]c2ccccc12)NC(=O)[C@H](Cc1ccc(O)cc1)NC(=O)[C@H](CC(=O)O)NC(=O)[C@@H](N)Cc1ccc(O[C@@H]2O[C@H](CO)[C@@H](O)[C@H](O)[C@H]2O)cc1)C(=O)N[C@@H](Cc1c[nH]c2ccccc12)C(=O)N[C@H](Cc1c[nH]c2ccccc12)C(=O)N[C@@H](CCCCN)C(N)=O`, for which the pKB was under 5 in experiment [1] and 7.2 in experiment [2].

For `CC(C)[C@H](NC(=O)[C@H](Cc1c[nH]c2ccccc12)NC(=O)[C@H](Cc1ccc(O[C@@H]2O[C@H](CO)[C@@H](O)[C@H](O)[C@H]2O)cc1)NC(=O)[C@@H](N)CC(=O)O)C(=O)N[C@@H](Cc1c[nH]c2ccccc12)C(N)=O` (H-DY(βGlc)WVW-NH2), the pKB entry in experiment [3] was “inactive”. The pKB in experiment [2] is under 5.

`CC(C)[C@H](NC(=O)[C@H](Cc1c[nH]c2ccccc12)NC(=O)[C@H](Cc1ccc(O)cc1)NC(=O)[C@@H](N)CC(=O)O)C(=O)N[C@H](Cc1c[nH]c2ccccc12)C(=O)N[C@@H](Cc1c[nH]c2ccccc12)C(=O)N[C@@H](CCCCN)C(N)=O`: the figures for the pKB in experiment [1] and in experiment [2] were 5.6 and 8.1, respectively.

For the compound `CC(C)[C@H](NC(=O)[C@@H](Cc1c[nH]c2ccccc12)NC(=O)[C@H](Cc1ccc(O)cc1)NC(=O)[C@@H](N)CC(=O)O)C(=O)N[C@H](Cc1c[nH]c2ccccc12)C(N)=O`, the pKB in experiment [1] came to 5.4; in experiment [2] it was 6.3.

Regarding `CC(C)[C@H](NC(=O)[C@H](Cc1c[nH]c2ccccc12)NC(=O)[C@H](Cc1ccc(O)cc1)NC(=O)[C@H](CC(=O)O)NC(=O)[C@@H](N)CO[C@@H]1O[C@H](CO)[C@@H](O)[C@H](O)[C@H]1O)C(=O)N[C@@H](Cc1c[nH]c2ccccc12)C(=O)N[C@H](Cc1c[nH]c2ccccc12)C(=O)N[C@@H](CCCCN)C(N)=O`, the pKB in experiment [1] is under 5; in experiment [2] it was 7.3.

`CC(C)[C@H](NC(=O)C(Cc1c[nH]c2ccccc12)NC(=O)[C@H](Cc1ccc(O)cc1)NC(=O)[C@H](CC(=O)O)NC(=O)[C@@H](N)CO[C@@H]1O[C@H](CO)[C@@H](O)[C@H](O)[C@H]1O)C(=O)NC(Cc1c[nH]c2ccccc12)C(N)=O` (stereo in doubt): the pKB in experiment [1] and in experiment [2] was under 6 throughout.

As for `CC(C)[C@H](NC(=O)[C@H](Cc1c[nH]c2ccccc12)NC(=O)[C@H](Cc1ccc(O[C@@H]2O[C@H](CO)[C@@H](O)[C@H](O)[C@H]2O)cc1)NC(=O)[C@@H](N)CC(=O)O)C(=O)N[C@@H](Cc1c[nH]c2ccccc12)C(=O)N[C@H](Cc1c[nH]c2ccccc12)C(=O)N[C@@H](CCCCN)C(N)=O`, the pKB entry in experiment [3] is “inactive”. The compound further came in with a negative-log KB (pKB) in experiment [2] of 6.2.
